The target of the assay is Nonstructural protein 3 (Zika virus, UniProt A0A024AXB9). Kind of assay: Functional biochemical assay to identify treatments for viral infectious disease that targets Zika NS2B-NS3 protease. Utilizing a direct enzyme activity measurement method, reading the fluorescence intensity is used to characterize the relative potency of inhibitors as IC50. Further details: species or system PRVABC59.

“And” between values parts separate entries of the source, which are not always exact repeats. Identical values can stand only once. Bounds are passed on as bounds.

Sequence of Nonstructural protein 3 (A0A024AXB9 whole entry): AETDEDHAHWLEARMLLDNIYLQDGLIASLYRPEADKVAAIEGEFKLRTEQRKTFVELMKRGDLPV

As to `Cc1ncsc1C(=O)N[C@H](C(=O)Nc1cccc(CN)c1)c1ccc(OCc2ccccc2)cc1`, the IC50 is > 99.5 µM. Take `CCN1CCN(c2ccc(NS(=O)(=O)c3ccc(Cl)cc3C(=O)O)cc2)CC1`: the IC50 was > 99.5 µM. Next, `COc1ccc(F)cc1-c1ccc(S(=O)(=O)Nc2ccc(Cl)cc2C(=O)O)cc1`: 28.8 µM; `CCn1c(=O)c(N2C[C@H]3CCC[C@H]2C3)nc2ccccc21`: > 99.5 µM. For `NCc1cccc(NC(=O)[C@H](NC(=O)C2CCC2)c2ccc(OCc3ccccc3)cc2)c1`, the IC50 is > 99.5 µM.

As for `O=C(O)c1cc(F)c(F)c(F)c1NS(=O)(=O)c1ccc(Oc2ccccc2Cl)cc1`, half-maximal inhibition (IC50) was put at 88.8 µM. The same measure for `CCC(=O)N1CCc2ccc(NS(=O)(=O)c3ccc(Cl)cc3C(=O)O)cc21`: > 99.5 µM. The same measure for `O=C(Cn1ccnc(N2CC[C@H](CO)C2)c1=O)NCc1nccs1`: > 99.5 µM; for `CCn1ccnc(N2C[C@H](c3c[nH]c4ccccc34)[C@H](N3C(=O)c4ccccc4C3=O)C2)c1=O`: > 99.5 µM. The compound `CC(C)Oc1ccccc1C(=O)N[C@H](C(=O)Nc1cccc(CN)c1)c1ccc(OCc2ccccc2)cc1` came in with an IC50 of 34.4 µM. In turn, `NCc1cccc(NC(=O)[C@H](NC(=O)OCc2ccccc2)c2ccc(Br)cc2F)c1` gave an IC50 of 72 µM. Consider `NCc1cccc(CNC(=O)c2cc(Cl)cc(NC(=O)OCc3ccccc3)c2)c1`, for which the IC50 worked out at 51.3 µM. As to `NCc1cccc(NC(=O)[C@H](NC(=O)OCc2ccccc2)c2cccc(-c3ccc(S(N)(=O)=O)cc3)c2)c1`, the IC50 came out at 84.1 µM. The same measure for `Cn1cc(-c2cccc([C@H](NC(=O)OCc3ccccc3)C(=O)Nc3cccc(CN)c3)c2)cn1`: > 99.5 µM. As to `COCc1cc(Cl)ccc1NS(=O)(=O)c1ccc(Oc2ccccc2Cl)cc1`, the IC50 is > 99.5 µM. On to `CCN(C(=O)Cn1ccnc(N2CC[C@H](CO)C2)c1=O)C(C)C`, for which the IC50 is > 99.5 µM. Regarding `NCc1cccc(NC(=O)[C@H](NC(=O)c2ccns2)c2ccc(OCc3ccccc3)cc2)c1`, inhibition was half-maximal at 95.2 µM (IC50). The same measure for `CCn1c(=O)c(N2CC[C@H](c3nccn3C)C2)nc2ccccc21`: > 99.5 µM; for `Cc1nccn1-c1ccc(NS(=O)(=O)c2ccc(Cl)cc2C(=O)O)cc1F`: > 99.5 µM.

Turning to `O=C(O)c1cc(Cl)ccc1S(=O)(=O)Nc1ccc(N2CCCS2(=O)=O)cc1`, the IC50 was > 99.5 µM. Take `Cc1cc(N2CCC(NS(=O)(=O)c3ccc(Cl)cc3C(=O)O)CC2)nc(C)n1`: the IC50 was > 99.5 µM.

For the compound `CCOc1cccc(-c2ccc(S(=O)(=O)Nc3ccc(Cl)cc3C(=O)O)cc2)c1`, the IC50 is 14.7 µM and 13.8 µM. The same measure for `NCC1(NC(=O)[C@H](NC(=O)OCc2ccccc2)c2ccc(OCc3ccccc3)cc2)CCCCC1`: 58.5 µM; for `Cn1ccnc1C(=O)N[C@H](C(=O)Nc1cccc(CN)c1)c1ccc(OCc2ccccc2)cc1`: > 99.5 µM. The same measure for `CCn1c(=O)c(N2C[C@H]3C[C@H]2CS(=O)(=O)C3)nc2ccccc21`: > 99.5 µM. The same measure for `CS(=O)(=O)c1ccc(-c2ccc(S(=O)(=O)Nc3ccc(Cl)cc3C(=O)O)cc2)cc1`: 77.5 µM; for `NCc1cccc(NC(=O)[C@H](NC(=O)OCc2ccccc2)c2cccc(-c3cncc(F)c3)c2)c1`: > 99.5 µM. Consider `CCn1c(=O)c(N2CC[C@H]3[C@H]2[C@H]3C(F)(F)F)nc2ccccc21`, for which the IC50 was > 99.5 µM.

Turning to `CS(=O)(=O)c1ccc(-c2cccc([C@H](NC(=O)OCc3ccccc3)C(=O)Nc3cccc(CN)c3)c2)cc1`, it took 70.5 µM to reach half-maximal inhibition (IC50). The same measure for `CCC(C)(C)C(=O)N[C@H](C(=O)Nc1cccc(CN)c1)c1ccc(OCc2ccccc2)cc1`: > 99.5 µM; for `O=C(O)c1cc(Cl)ccc1NS(=O)(=O)c1ccc(-c2cccnc2)cc1`: > 99.5 µM. Consider `CCn1c(=O)c(N2CC[C@]3(CCNC3=O)C2)nc2ccccc21`, for which the IC50 is > 99.5 µM.

`O=C(O)c1cc(Cl)ccc1S(=O)(=O)NC1CCC(N2CCCCC2=O)CC1` (stereo unspecified): the half-inhibitory concentration (IC50) is > 99.5 µM.

For `O=C(O)c1cc(Cl)ccc1S(=O)(=O)Nc1ccc(Oc2ccccn2)cc1`, the half-inhibitory concentration (IC50) was > 99.5 µM.

In turn, `Cc1ccc(C(=O)N[C@H](C(=O)Nc2cccc(CN)c2)c2ccc(OCc3ccccc3)cc2)s1` registered an IC50 of 60 µM. `CS(=O)(=O)c1cncc(-c2cccc([C@H](NC(=O)OCc3ccccc3)C(=O)Nc3cccc(CN)c3)c2)c1` had an IC50 of 60.8 µM. Next, `CCN1C[C@H]2C[C@@H]1CN2c1nc2ccccc2n(CC)c1=O`: > 99.5 µM; `Cc1cc(OCc2ccccc2)ccc1NS(=O)(=O)c1ccc(Cl)cc1C(=O)O`: > 99.5 µM; `CCn1c(=O)c(N2CCC[C@@H]2c2cncn2C)nc2ccccc21`: > 99.5 µM. Regarding `N#Cc1ccccc1-c1ccc(S(=O)(=O)Nc2ccc(Cl)cc2C(=O)O)cc1`, inhibition was half-maximal at 80 µM (IC50). With `CCn1c(=O)c(N2CCC[C@H]2C(=O)NC2CC2)nc2ccccc21`, the IC50 is > 99.5 µM. With `CCn1c(=O)c(N2C[C@H]3COC[C@@]3(C)C2)nc2ccccc21`, the IC50 was > 99.5 µM. Next, `NCc1cccc(NC(=O)[C@H](NC(=O)OCc2ccccc2)c2cccc(C3=CCCOC3)c2)c1`: 93.3 µM.

As to `CC(C)[C@@H]1[C@H](C(=O)Nc2cccc(CN)c2)CCN1C(=O)OCc1ccccc1`, the IC50 is > 99.5 µM. Next, `NCc1cccc(NC(=O)[C@H](NC(=O)C2CCCCC2)c2ccc(OCc3ccccc3)cc2)c1`: 22.3 µM and 20 µM; `Cn1ncc2cc(C(=O)N3CCC(NC(=O)[C@]4(C)CCC[C@H]4O)CC3)cc(O)c21`: > 99.5 µM; `Cc1occ(C(F)(F)F)c1C(=O)N[C@H](C(=O)Nc1cccc(CN)c1)c1ccc(OCc2ccccc2)cc1`: 61 µM. In the case of `NCc1cccc(NC(=O)[C@H](NC(=O)[C@H]2CCOC2)c2ccc(OCc3ccccc3)cc2)c1`, the IC50 is > 99.5 µM. With `COc1ccc(NS(=O)(=O)c2ccc(Cl)cc2C(=O)O)cc1OC1CCCC1`, the IC50 was > 99.5 µM. Next, `O=C(O)c1cc(Cl)ccc1NS(=O)(=O)c1ccc(-c2cn[nH]c2)cc1`: > 99.5 µM; `C[C@]1(C(=O)N[C@H](C(=O)Nc2cccc(CN)c2)c2ccc(OCc3ccccc3)cc2)COc2ccccc2O1`: 17.2 µM. Consider `CCn1c(=O)c(N2CC[C@]3(CNC(=O)O3)C2)nc2ccccc21`, for which the IC50 was > 99.5 µM. The same measure for `CCn1c(=O)c(N2C[C@H]3CCS(=O)(=O)[C@H]3C2)nc2ccccc21`: > 99.5 µM. Next, `NCc1cccc(NC(=O)[C@H](NC(=O)c2ccncc2)c2ccc(OCc3ccccc3)cc2)c1`: > 99.5 µM; `O=C(O)c1cc(Cl)ccc1S(=O)(=O)Nc1ccc(-c2cccc(F)c2)cc1`: > 99.5 µM. Take `CC(=O)Nc1cccc(-c2ccc(S(=O)(=O)Nc3ccc(Cl)cc3C(=O)O)cc2)c1`: the IC50 was > 99.5 µM. Consider `NCc1cccc(N(C(=O)CNC(=O)OCc2ccccc2)c2ccc(OCc3ccccc3)cc2)c1`, for which the IC50 was > 99.5 µM. For `O=C(O)c1cc(Cl)ccc1S(=O)(=O)NC1CCN(Cc2ccccn2)CC1`, the IC50 was > 99.5 µM. For `O=C(O)c1ccc(F)c(F)c1NS(=O)(=O)c1ccc(Oc2ccccc2Cl)cc1`, the IC50 is > 99.5 µM. Next, `CCn1c(=O)c(N2C[C@H](C)C[C@H]2c2ccccc2)nc2ccccc21`: > 99.5 µM. The same measure for `CCn1c(=O)c(N2C[C@@H]3C[C@]3(CO)C2)nc2ccccc21`: > 99.5 µM; for `CCn1c(=O)c(N2C[C@H](O)C3(CC3)C2)nc2ccccc21`: > 99.5 µM. For `CCn1c(=O)c(N2C[C@]3(CO)C[C@H]2CO3)nc2ccccc21`, the IC50 is > 99.5 µM. As to `CCc1n[nH]cc1-c1cccc([C@H](NC(=O)OCc2ccccc2)C(=O)Nc2cccc(CN)c2)c1`, the IC50 is > 99.5 µM. Next, `CCn1c(=O)c(N2C[C@@H]3[C@H](C2)[C@H]2CC[C@@H]3O2)nc2ccccc21`: > 99.5 µM; `COc1ccccc1-c1ccc(S(=O)(=O)Nc2ccc(Cl)cc2C(=O)O)cc1`: 37.6 µM. `CC1(NS(=O)(=O)c2ccc(Cl)cc2C(=O)O)CCN(c2ccccc2)CC1`: the IC50 is > 99.5 µM. In the case of `CCOCC(=O)N[C@H](C(=O)Nc1cccc(CN)c1)c1ccc(OCc2ccccc2)cc1`, the IC50 is > 99.5 µM. Next, `CCn1c(=O)c(N2CCC[C@@H]2Cn2cncn2)nc2ccccc21`: > 99.5 µM; `CCn1c(=O)c(N2CC[C@H](c3nncs3)C2)nc2ccccc21`: > 99.5 µM; `NC[C@H]1C[C@@H](NC(=O)c2cc(Cl)ccc2NS(=O)(=O)c2ccc(Oc3ccccc3Cl)cc2)C1`: > 99.5 µM.

As for `NCc1cccc(NC(=O)[C@H](NC(=O)Cn2cccn2)c2ccc(OCc3ccccc3)cc2)c1`, the IC50 was > 99.5 µM. Consider `O=C(O)c1cc(Cl)ccc1S(=O)(=O)N[C@H]1CCN(Cc2ccccc2)C(=O)C1`, for which the 50% inhibitory concentration (IC50) was > 99.5 µM. `O=C(O)c1cc(Cl)ccc1S(=O)(=O)N[C@H]1CC[C@H]2CN(Cc3ccccc3)C[C@H]2C1`: the IC50 was > 99.5 µM. Next, `CCCCN1Cc2ccc(NS(=O)(=O)c3ccc(Cl)cc3C(=O)O)cc2C1`: > 99.5 µM; `C[C@]1(C(=O)N[C@H](C(=O)Nc2cccc(CN)c2)c2ccc(OCc3ccccc3)cc2)CCCO1`: > 99.5 µM. `CCn1c(=O)c(N2CC3(COC3)[C@](F)(CO)C2)nc2ccccc21`: the IC50 was > 99.5 µM. Next, `NCc1cccc(NC(=O)c2cc(Cl)ccc2NS(=O)(=O)c2ccc(Oc3ccccc3Cl)cc2)c1`: > 99.5 µM; `Cc1cc(-c2cccc([C@H](NC(=O)OCc3ccccc3)C(=O)Nc3cccc(CN)c3)c2)[nH]n1`: > 99.5 µM; `CCn1c(=O)c(N2C[C@H]3C[C@H]2C(F)(F)C3)nc2ccccc21`: > 99.5 µM. Next, `CCn1c(=O)c(N2CC[C@]3(CCSC3)C2)nc2ccccc21`: > 99.5 µM.

As for `NS(=O)(=O)c1cccc(-c2ccc(S(=O)(=O)Nc3ccc(Cl)cc3C(=O)O)cc2)c1`, the IC50 was > 99.5 µM.

Take `CCn1c(=O)c(N2CCC[C@@H]2Cc2cccs2)nc2ccccc21`: the IC50 was > 99.5 µM. Compound `NCc1cccc(NC(=O)C[C@H](NC(=O)OCc2ccccc2)c2ccc(Br)cc2)c1` registered an IC50 of 48.7 µM. With `CC(=O)N1CCN([C@H]2CC[C@H](NS(=O)(=O)c3ccc(Cl)cc3C(=O)O)CC2)CC1`, the IC50 was > 99.5 µM. Next, `CCC1CN(C(=O)c2cc(Cl)ccc2NS(=O)(=O)c2ccc(Oc3ccccc3Cl)cc2)C1`: > 99.5 µM.

A word on the IC50: it is the midpoint of a concentration-inhibition curve.

The record behind these values is ChEMBL document CHEMBL5604062, “ASAP - ZIKV NS2B-NS3 protease fluorescence dose response” (2024).
